Assay results from US12491170B2, “Stable treprostinil prodrugs” (United Therapeutics Corporation, priority 2020, dated 2025).
Like-named read-outs stand apart in the source and are kept apart here.

Tests used:
[1] = biological target: prostaglandin I2 (PGI2) receptor (IP) (Homo sapiens, UniProt P43119); assay: IP receptor cAMP agonist assay (CHO-K1 cells); type: cell-based; conditions: Table 22; relative to treprostinil EC50 values; * partial agonists or ambiguous dose-response curves
Method: (§1) Cyclic AMP assay kit: Multiscreen™ TR-FRET cAMP 1.0 No Wash Assay Kit (Multispan, Inc.)
(§2) Cells were thawed from frozen cells and resuspended in assay buffer at desired concentrations. cAMP or Calcium assays were performed according to the manufacturer's protocol using Multiscreen™ TR-FRET cAMP 1.0 No Wash Assay Kit or Multiscreen™ Calcium 1.0 No Wash Kit.
(§3) Gas Cyclic AMP (cAMP) Assay: In agonist mode testing, cells were seeded in a 384-well plate at an appropriate density and then were treated with compounds and incubated at 37° C. for 20 minutes. The reaction was terminated by […] trFluor™ Eu-labeled cAMP and trFluor™ 650-labeled anti-cAMP antibody in lysis buffer. […] All testing wells contained 0.1% DMSO in the final concentrations.
(§4) Data in graphs are represented in Mean±SD. Dose-dependent responses were fitted with sigmoidal dose-response curves allowing variable slopes using GraphPad Prism version 6 (Graphpad Prism).
(§5) These studies used cell lines overexpressing either human IP, EP2 or DP1, or EP1 receptors, and following incubation with varying concentrations of compounds, cAMP levels were measured using Fluorescence Resonance Energy Transfer (FRET).

[2] = biological target: T1, prostaglandin D2 (PGD2) receptor 1 (DP1) (Homo sapiens, UniProt Q13258); assay: DP1 receptor cAMP agonist assay (HEK293T cells); type: cell-based; conditions: Table 22; relative to treprostinil EC50 values; * partial agonists or ambiguous dose-response curves
T1 sequence (Q13258 1-359): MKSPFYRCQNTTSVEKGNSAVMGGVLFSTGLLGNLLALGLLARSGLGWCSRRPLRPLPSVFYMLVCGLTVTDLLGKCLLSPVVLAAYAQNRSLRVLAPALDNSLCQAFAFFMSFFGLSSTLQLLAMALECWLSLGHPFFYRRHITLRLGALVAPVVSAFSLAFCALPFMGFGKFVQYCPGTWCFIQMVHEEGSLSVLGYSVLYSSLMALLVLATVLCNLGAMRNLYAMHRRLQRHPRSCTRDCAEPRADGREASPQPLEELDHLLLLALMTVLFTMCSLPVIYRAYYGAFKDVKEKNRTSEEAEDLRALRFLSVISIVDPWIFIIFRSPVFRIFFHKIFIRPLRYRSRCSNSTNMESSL
Method: as §1, §2, §3, §4, §5

[3] = biological target: prostaglandin E2 (PGE2) receptor 2 (EP2) (Homo sapiens, UniProt P43116); assay: EP2 receptor cAMP agonist assay (HEK293T cells); type: cell-based; conditions: Table 22; relative to treprostinil EC50 values; * partial agonists or ambiguous dose-response curves
Chain of prostaglandin E2 (PGE2) receptor 2 (EP2) (P43116 whole entry): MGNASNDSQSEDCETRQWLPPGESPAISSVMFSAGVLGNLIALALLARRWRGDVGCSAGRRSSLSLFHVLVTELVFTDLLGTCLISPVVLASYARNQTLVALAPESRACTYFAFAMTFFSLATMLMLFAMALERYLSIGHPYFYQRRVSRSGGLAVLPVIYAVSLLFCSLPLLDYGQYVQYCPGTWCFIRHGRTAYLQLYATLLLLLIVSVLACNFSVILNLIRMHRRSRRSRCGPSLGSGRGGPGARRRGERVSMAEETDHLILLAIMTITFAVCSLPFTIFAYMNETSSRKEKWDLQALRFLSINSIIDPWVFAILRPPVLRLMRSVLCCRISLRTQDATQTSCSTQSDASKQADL
Method: as §1, §2, §3, §4, §5

[4] = Hydrolysis of prodrugs to treprostinil at pH 6, 7, 8 and 40 C; type: physicochemical
Description: Tables 24, 25 and 26 present data for hydrolysis of selected treprostinil prodrugs at pH 6, 7 and 8, respectively, and 40 C.

[5] = rat
[6] = Stability in liver microsomes, dog
[7] = Stability in cryopreserved hepatocytes, rat; conditions: for AUC: rat
[8] = Stability in cryopreserved hepatocytes, human; conditions: for AUC: human
[9] = Stability in cryopreserved hepatocytes, dog; conditions: for AUC: dog
[10] = Stability in liver microsomes, rat
[11] = Stability in liver microsomes, human; conditions: for AUC: human
[12] = dog
[13] = Stability in human subcutaneous skin homogenate; conditions: for AUC: human

Chain of prostaglandin I2 (PGI2) receptor (IP) (P43119 whole entry): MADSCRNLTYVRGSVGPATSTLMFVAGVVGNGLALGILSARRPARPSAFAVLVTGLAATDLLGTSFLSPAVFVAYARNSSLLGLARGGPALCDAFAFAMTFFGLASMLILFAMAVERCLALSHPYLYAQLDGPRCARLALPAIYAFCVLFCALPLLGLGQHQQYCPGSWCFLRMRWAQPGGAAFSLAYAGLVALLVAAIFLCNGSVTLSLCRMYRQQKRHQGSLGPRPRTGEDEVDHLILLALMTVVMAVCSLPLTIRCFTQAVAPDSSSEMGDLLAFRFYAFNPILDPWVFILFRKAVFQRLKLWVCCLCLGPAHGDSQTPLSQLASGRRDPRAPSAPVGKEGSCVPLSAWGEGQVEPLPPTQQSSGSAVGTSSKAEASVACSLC

SMILES: CCCCCC(CCC1C(O)CC2Cc3c(cccc3OCC(=O)O)CC21)OC(=O)C12CC3CC(CC(C3)C1)C2 (stereo not shown) [Prodrug LXIX]
- IP Relative to Tre [1]: 1470x*
- DP1 Relative to Tre [2]: 1897x
- EP2 Relative to Tre [3]: 236x*
- Hydrolysis to treprostinil, % Area, t = 1 week ([4]; pH 6, 40 C.): 0.00 % Area
- Hydrolysis to treprostinil, % Area, t = 2 weeks ([4]; pH 6, 40 C.): 0.00 % Area
- Hydrolysis to treprostinil, % Area, t = 3 weeks ([4]; pH 6, 40 C.): 0.00 % Area
- Hydrolysis to treprostinil, % Area, t = 1 week ([4]; pH 7, 40 C.): 0.00 % Area
- Hydrolysis to treprostinil, % Area, t = 2 weeks ([4]; pH 7, 40 C.): 0.00 % Area
- Hydrolysis to treprostinil, % Area, t = 3 weeks ([4]; pH 7, 40 C.): 0.00 % Area
- Hydrolysis to treprostinil, % Area, t = 1 week ([4]; pH 8, 40 C.): 0.00 % Area
- Hydrolysis to treprostinil, % Area, t = 2 weeks ([4]; pH 8, 40 C.): 0.00 % Area
- Hydrolysis to treprostinil, % Area, t = 3 weeks ([4]; pH 8, 40 C.): 0.00 % Area

SMILES: CCCCCC(CCC1C(O)CC2Cc3c(cccc3OCC(=O)O)CC21)OC(=O)C(N)CCCCN (stereo not shown) [XXXV]
- AUC [5]: 2.92 µmol·min/L
- Trep Concentration 0 min [6]: 0.0159 µM
- Trep Concentration 10 min [6]: 0.0246 µM
- Trep Concentration 20 min [6]: 0.0405 µM
- Trep Concentration 30 min [6]: 0.0449 µM
- Trep Concentration 60 min [6]: 0.0788 µM
- Trep Concentration (μM) 0 min [7]: 0 µM
- Trep Concentration (μM) 15 min [7]: 0.0876 µM
- Trep Concentration (μM) 30 min [7]: 0.129 µM
- Trep Concentration (μM) 60 min [7]: 0.169 µM
- Trep Concentration (μM) 120 min [7]: 0.239 µM
- AUC [7]: 18.99 µmol·min/L
- Trep Concentration (μM) 0 min [8]: 0 µM
- Trep Concentration (μM) 15 min [8]: 0.0481 µM
- Trep Concentration (μM) 30 min [8]: 0.0749 µM
- Trep Concentration (μM) 60 min [8]: 0.123 µM
- Trep Concentration (μM) 120 min [8]: 0.194 µM
- AUC [8]: 13.76 µmol·min/L
- Trep Concentration (μM) 0 min [9]: 0 µM
- Trep Concentration (μM) 15 min [9]: 0.0601 µM
- Trep Concentration (μM) 30 min [9]: 0.0885 µM
- Trep Concentration (μM) 60 min [9]: 0.127 µM
- Trep Concentration (μM) 120 min [9]: 0.139 µM
- AUC [9]: 12.78 µmol·min/L
- Trep Concentration 0 min [10]: 0.0254 µM
- Trep Concentration 10 min [10]: 0.0305 µM
- Trep Concentration 20 min [10]: 0.0389 µM
- Trep Concentration 30 min [10]: 0.0458 µM
- Trep Concentration 60 min [10]: 0.079 µM
- Trep Concentration 0 min [11]: 0.0227 µM
- Trep Concentration 10 min [11]: 0.0216 µM
- Trep Concentration 20 min [11]: 0.0492 µM
- Trep Concentration 30 min [11]: 0.0352 µM
- Trep Concentration 60 min [11]: 0.0539 µM
- AUC [11]: 2.33 µmol·min/L
- AUC [12]: 2.81 µmol·min/L
- Trep Concentration 0 min [13]: 0 µM
- Trep Concentration 30 min [13]: 0.857 µM
- Trep Concentration 60 min [13]: 0.82 µM
- Trep Concentration 120 min [13]: 0.929 µM
- AUC [13]: 90.48 µmol·min/L

SMILES: CCCCCC(CCC1C(O)CC2Cc3c(cccc3OCC(=O)O)CC21)OC(=O)CCN (stereo not shown) [XXXVII]
- AUC [5]: 0.00 µmol·min/L
- Trep Concentration 0 min [6]: 0.0163 µM
- Trep Concentration 20 min [6]: 0.0295 µM
- Trep Concentration 30 min [6]: 0.0273 µM
- Trep Concentration 60 min [6]: 0.0415 µM
- Trep Concentration (μM) 0 min [7]: 0 µM
- Trep Concentration (μM) 15 min [7]: 0.0136 µM
- Trep Concentration (μM) 30 min [7]: 0.0199 µM
- Trep Concentration (μM) 60 min [7]: 0.106 µM
- Trep Concentration (μM) 120 min [7]: 0.0527 µM
- AUC [7]: 7.00 µmol·min/L
- Trep Concentration (μM) 0 min [8]: 0 µM
- Trep Concentration (μM) 15 min [8]: 0.0481 µM
- Trep Concentration (μM) 30 min [8]: 0.041 µM
- Trep Concentration (μM) 60 min [8]: 0.0715 µM
- Trep Concentration (μM) 120 min [8]: 0.115 µM
- AUC [8]: 8.31 µmol·min/L
- Trep Concentration (μM) 0 min [9]: 0 µM
- Trep Concentration (μM) 15 min [9]: 0.0424 µM
- Trep Concentration (μM) 30 min [9]: 0.0879 µM
- Trep Concentration (μM) 60 min [9]: 0.147 µM
- Trep Concentration (μM) 120 min [9]: 0.248 µM
- AUC [9]: 16.67 µmol·min/L
- Trep Concentration 0 min [10]: 0 µM
- Trep Concentration 10 min [10]: 0 µM
- Trep Concentration 20 min [10]: 0 µM
- Trep Concentration 30 min [10]: 0 µM
- Trep Concentration 60 min [10]: 0 µM
- Trep Concentration 0 min [11]: 0 µM
- Trep Concentration 10 min [11]: 0.0147 µM
- Trep Concentration 20 min [11]: 0 µM
- Trep Concentration 30 min [11]: 0.0153 µM
- Trep Concentration 60 min [11]: 0.00987 µM
- AUC [11]: 0.60 µmol·min/L
- AUC [12]: 1.72 µmol·min/L
- Trep Concentration 0 min [13]: 0 µM
- Trep Concentration 30 min [13]: 0 µM
- Trep Concentration 60 min [13]: 0.0137 µM
- Trep Concentration 120 min [13]: 0.0304 µM
- AUC [13]: 1.53 µmol·min/L

SMILES: CCCCCC(CCC1C(O)CC2Cc3c(cccc3OCC(=O)O)CC21)OP(=O)(O)O (stereo not shown) [VI]
- AUC [5]: 31.40 µmol·min/L
- Trep Concentration 0 min [6]: 0.21 µM
- Trep Concentration 10 min [6]: 0.32 µM
- Trep Concentration 20 min [6]: 0.43 µM
- Trep Concentration 30 min [6]: 0.48 µM
- Trep Concentration 60 min [6]: 0.75 µM
- Trep Concentration (μM) 0 min [7]: 0.128 µM
- Trep Concentration (μM) 15 min [7]: 0.693 µM
- Trep Concentration (μM) 30 min [7]: 0.635 µM
- Trep Concentration (μM) 60 min [7]: 0.564 µM
- Trep Concentration (μM) 120 min [7]: 0.53 µM
- AUC [7]: 66.92 µmol·min/L
- Trep Concentration (μM) 0 min [8]: 0 µM
- Trep Concentration (μM) 15 min [8]: 0.223 µM
- Trep Concentration (μM) 30 min [8]: 0.365 µM
- Trep Concentration (μM) 60 min [8]: 0.466 µM
- Trep Concentration (μM) 120 min [8]: 0.540 µM
- AUC [8]: 48.73 µmol·min/L
- Trep Concentration (μM) 0 min [9]: 0.0124 µM
- Trep Concentration (μM) 30 min [9]: 0.609 µM
- Trep Concentration (μM) 60 min [9]: 0.533 µM
- Trep Concentration (μM) 120 min [9]: 0.548 µM
- AUC [9]: 62.94 µmol·min/L
- Trep Concentration 0 min [10]: 0.27 µM
- Trep Concentration 10 min [10]: 0.39 µM
- Trep Concentration 20 min [10]: 0.46 µM
- Trep Concentration 30 min [10]: 0.53 µM
- Trep Concentration 60 min [10]: 0.73 µM
- Trep Concentration 0 min [11]: 0.02 µM
- Trep Concentration 10 min [11]: 0.038 µM
- Trep Concentration 20 min [11]: 0.038 µM
- Trep Concentration 30 min [11]: 0.03 µM
- Trep Concentration 60 min [11]: 0.061 µM
- AUC [11]: 2.38 µmol·min/L
- AUC [12]: 29.40 µmol·min/L
- Trep Concentration 0 min [13]: 0 µM
- Trep Concentration 30 min [13]: 0.6 µM
- Trep Concentration 60 min [13]: 0.93 µM
- Trep Concentration 120 min [13]: 1.07 µM
- AUC [13]: 91.95 µmol·min/L
